Reference: US20080009418A1, “Selective Inhibitors” (Alchemia LTD., priority 2004, published 2008)

Columns and labels:
Human Melanocortin (MC3) = biological target: T1, Human Melanocortin (MC3) (Homo sapiens, UniProt P41968); assay: Radioligand binding, human melanocortin MC3 membranes, FlashPlate, [125I]-NDP-αMSH; conditions: compound at 10 μM; for A3 radioligand binding inhibition: human melanocortin MC3 membranes
T1 construct: purchased Perkin Elmer Biosignal
Method in brief: (§1)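 Cloned human receptor membranes were coated onto FlashPlate wells and incubated with radioligand and compound (added from a 0.5 mM DMSO daughter plate) for 1 hour at room temperature in the dark. Scintillation counting gave percent inhibition, with DMSO defining total and reference ligand defining non-specific binding.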

Human κ-Opioid (KOP) = biological target: T2, Human κ-Opioid (KOP) (Homo sapiens, UniProt P41145); assay: Radioligand binding, human κ-opioid (KOP) membranes, filtration, [3H]-Diprenorphine; conditions: compound at 10 μM; for A2 radioligand binding inhibition: human κ-opioid (KOP) membranes
T2 construct: purchased Perkin Elmer Biosignal
T2 sequence (P41145 whole entry): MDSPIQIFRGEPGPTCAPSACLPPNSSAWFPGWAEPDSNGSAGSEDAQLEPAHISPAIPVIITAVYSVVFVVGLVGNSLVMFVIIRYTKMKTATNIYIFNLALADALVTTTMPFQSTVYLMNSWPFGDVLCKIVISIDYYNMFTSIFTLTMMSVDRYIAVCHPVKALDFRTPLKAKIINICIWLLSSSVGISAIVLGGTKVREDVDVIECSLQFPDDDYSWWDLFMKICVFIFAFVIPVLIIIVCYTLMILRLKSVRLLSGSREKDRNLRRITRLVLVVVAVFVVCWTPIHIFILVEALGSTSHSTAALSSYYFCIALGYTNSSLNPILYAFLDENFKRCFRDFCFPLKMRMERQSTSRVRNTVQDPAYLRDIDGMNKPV
Method in brief: (§2)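 Percent inhibition of radioligand binding measured on recombinant human membranes: NK1 with [125I]-Substance P, KOP with [3H]-Diprenorphine. Incubation 1 h at room temperature, then harvest onto 0.3% PEI-soaked filters, cold Tris-HCl pH 7.4 washes and scintillation counting; non-specific binding from reference ligand wells.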

Mouse urotensin (mUR2) = biological target: T3, Mouse urotensin (mUR2) (Mus musculus, UniProt Q8VIH9); assay: Radioligand binding, mouse urotensin mUR2 membranes, FlashPlate, [125I]-Urotensin II; conditions: compound at 10 μM; for A11 radioligand binding inhibition: mouse urotensin mUR2 membranes
T3 construct: purchased Perkin Elmer Biosignal
T3 sequence (Q8VIH9 1-385): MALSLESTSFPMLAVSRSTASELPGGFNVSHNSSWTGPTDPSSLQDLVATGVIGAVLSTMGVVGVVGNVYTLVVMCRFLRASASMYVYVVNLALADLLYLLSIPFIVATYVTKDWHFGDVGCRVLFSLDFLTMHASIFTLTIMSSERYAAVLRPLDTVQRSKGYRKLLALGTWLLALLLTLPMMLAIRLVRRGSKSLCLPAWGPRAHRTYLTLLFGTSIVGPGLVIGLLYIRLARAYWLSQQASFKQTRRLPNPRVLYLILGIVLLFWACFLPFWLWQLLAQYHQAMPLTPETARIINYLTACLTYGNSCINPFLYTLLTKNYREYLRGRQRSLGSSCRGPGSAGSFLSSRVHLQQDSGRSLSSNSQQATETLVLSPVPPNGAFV
Method in brief: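 Cloned mouse urotensin (mUR2) receptor membranes from Perkin Elmer Biosignal were immobilized in FlashPlate microplates using a proprietary coating. Each well got 19.5 μl buffer, then 0.5 μl of DMSO, reference ligand, or compound. Adding 5 μl of [125I]-Urotensin II, diluted to 5× final concentration in binding buffer, started binding. Plates were sealed with TopSeal-A and incubated 1 hour at room temperature in the dark. Wells were counted for 30 seconds each on a TopCount after a 60-second delay, and percentage inhibition was calculated.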

Human Melanocortin (MC4) = biological target: T4, Human Melanocortin (MC4) (Homo sapiens, UniProt P32245); assay: Radioligand binding, human melanocortin MC4 membranes, FlashPlate, [125I]-NDP-αMSH; conditions: compound at 10 μM; for A4 radioligand binding inhibition: human melanocortin MC4 membranes
T4 construct: purchased Perkin Elmer Biosignal
T4 sequence (P32245 whole entry): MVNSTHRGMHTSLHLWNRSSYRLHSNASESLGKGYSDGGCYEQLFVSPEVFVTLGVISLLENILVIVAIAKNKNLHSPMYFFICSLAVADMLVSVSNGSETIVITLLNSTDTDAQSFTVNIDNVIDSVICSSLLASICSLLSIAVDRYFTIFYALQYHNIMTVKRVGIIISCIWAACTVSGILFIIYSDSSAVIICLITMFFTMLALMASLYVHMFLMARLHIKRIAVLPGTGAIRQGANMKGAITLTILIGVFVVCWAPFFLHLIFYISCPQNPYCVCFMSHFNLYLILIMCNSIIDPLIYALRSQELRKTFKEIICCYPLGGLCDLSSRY
Method in brief: as §1

Human melanocortin (MC5) = biological target: T5, Human melanocortin (MC5) (Homo sapiens, UniProt P33032); assay: Radioligand binding, human melanocortin MC5 membranes, FlashPlate, [125I]-NDP-αMSH; conditions: compound at 10 μM; for A5 radioligand binding inhibition: human melanocortin MC5 membranes
T5 construct: purchased Perkin Elmer Biosignal
T5 sequence (P33032 whole entry): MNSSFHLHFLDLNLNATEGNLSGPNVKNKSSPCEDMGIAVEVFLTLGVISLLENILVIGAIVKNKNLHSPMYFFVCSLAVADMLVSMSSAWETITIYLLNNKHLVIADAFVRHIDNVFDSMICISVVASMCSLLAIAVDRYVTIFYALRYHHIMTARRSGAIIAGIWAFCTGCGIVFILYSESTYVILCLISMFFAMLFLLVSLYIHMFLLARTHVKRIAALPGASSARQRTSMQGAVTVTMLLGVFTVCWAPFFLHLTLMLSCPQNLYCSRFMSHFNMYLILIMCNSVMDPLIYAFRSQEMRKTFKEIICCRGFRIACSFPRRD
Method in brief: as §1

Human neurokinin (NK1) = biological target: T6, Human neurokinin (NK1) (Homo sapiens, UniProt P25103); assay: Radioligand binding, human neurokinin NK1 membranes, filtration, [125I]-Substance P; conditions: compound at 10 μM; for A8 radioligand binding inhibition: human neurokinin NK1 membranes
T6 construct: purchased Perkin Elmer Biosignal
T6 sequence (P25103 whole entry): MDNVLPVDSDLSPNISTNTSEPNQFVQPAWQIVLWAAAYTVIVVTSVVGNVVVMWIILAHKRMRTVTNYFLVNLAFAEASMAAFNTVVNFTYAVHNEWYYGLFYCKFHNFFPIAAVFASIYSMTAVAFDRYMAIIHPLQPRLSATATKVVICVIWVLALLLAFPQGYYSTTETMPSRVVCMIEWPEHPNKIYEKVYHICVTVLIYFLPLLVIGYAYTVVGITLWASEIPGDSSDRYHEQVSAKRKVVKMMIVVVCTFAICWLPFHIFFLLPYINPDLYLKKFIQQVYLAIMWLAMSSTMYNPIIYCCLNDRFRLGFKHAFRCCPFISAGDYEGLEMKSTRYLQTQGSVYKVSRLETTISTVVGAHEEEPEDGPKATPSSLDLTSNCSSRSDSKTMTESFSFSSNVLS
Method in brief: as §2

Human μ-opioid (MOP) = biological target: T7, Human μ-opioid (MOP) (Homo sapiens, UniProt P35372); assay: Radioligand binding, human μ-opioid (MOP) membranes, FlashPlate, [3H]-Naloxone; conditions: compound at 10 μM; for A7 radioligand binding inhibition: human μ-opioid (MOP) membranes
T7 construct: purchased Perkin Elmer Biosignal
T7 sequence (P35372 whole entry): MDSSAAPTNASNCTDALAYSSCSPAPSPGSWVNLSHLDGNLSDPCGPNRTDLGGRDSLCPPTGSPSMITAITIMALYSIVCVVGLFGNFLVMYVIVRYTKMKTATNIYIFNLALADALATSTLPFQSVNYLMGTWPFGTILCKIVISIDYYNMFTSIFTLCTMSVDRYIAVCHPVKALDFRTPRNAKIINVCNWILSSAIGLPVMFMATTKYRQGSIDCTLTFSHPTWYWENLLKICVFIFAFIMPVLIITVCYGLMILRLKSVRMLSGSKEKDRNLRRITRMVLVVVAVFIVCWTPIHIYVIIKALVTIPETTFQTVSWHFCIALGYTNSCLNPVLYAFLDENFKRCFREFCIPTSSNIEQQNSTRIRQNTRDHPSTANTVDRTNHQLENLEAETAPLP
Method in brief: as §1

Human δ-opioid (DOP) = biological target: T8, Human δ-opioid (DOP) (Homo sapiens, UniProt P41143); assay: Radioligand binding, human δ-opioid (DOP) membranes, FlashPlate, [3H]-Bremazocine; conditions: compound at 10 μM; for A1 radioligand binding inhibition: human δ-opioid (DOP) membranes
T8 construct: purchased Perkin Elmer Biosignal
T8 sequence (P41143 whole entry): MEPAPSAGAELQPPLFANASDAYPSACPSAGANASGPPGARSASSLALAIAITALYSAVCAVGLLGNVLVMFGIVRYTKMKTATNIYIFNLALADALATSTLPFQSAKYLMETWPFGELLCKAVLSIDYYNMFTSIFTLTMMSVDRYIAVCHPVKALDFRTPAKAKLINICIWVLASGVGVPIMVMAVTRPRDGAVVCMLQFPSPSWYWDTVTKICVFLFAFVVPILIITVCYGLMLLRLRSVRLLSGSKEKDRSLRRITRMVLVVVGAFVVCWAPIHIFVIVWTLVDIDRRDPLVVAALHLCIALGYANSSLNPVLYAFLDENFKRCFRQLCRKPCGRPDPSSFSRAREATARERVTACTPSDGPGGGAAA
Method in brief: as §1

Human opioid (ORL1) = biological target: T9, Human opioid (ORL1) (Homo sapiens, UniProt P41146); assay: Radioligand binding, human opioid ORL1 membranes, FlashPlate, [125I]-Nociceptin; conditions: compound at 10 μM; for A10 radioligand binding inhibition: human ORL1 membranes
T9 construct: purchased Perkin Elmer Biosignal
T9 sequence (P41146 whole entry): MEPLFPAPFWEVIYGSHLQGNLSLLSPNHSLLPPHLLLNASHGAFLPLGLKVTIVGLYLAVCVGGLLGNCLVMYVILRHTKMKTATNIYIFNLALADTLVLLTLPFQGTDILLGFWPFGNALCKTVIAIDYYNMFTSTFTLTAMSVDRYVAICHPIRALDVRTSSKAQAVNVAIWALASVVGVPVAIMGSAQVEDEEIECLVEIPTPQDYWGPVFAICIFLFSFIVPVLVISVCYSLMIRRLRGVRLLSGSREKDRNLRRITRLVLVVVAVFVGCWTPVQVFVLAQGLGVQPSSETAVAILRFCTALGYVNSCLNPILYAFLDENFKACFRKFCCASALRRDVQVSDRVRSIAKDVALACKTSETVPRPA
Method in brief: as §1

[1] = biological target: T10, Human neuropeptide Y (NPY-Y1) (Homo sapiens, UniProt P25929); assay: Radioligand binding, human neuropeptide Y NPY-Y1 membranes, FlashPlate, [125I]-PYY; conditions: compound at 10 μM; for A9 radioligand binding inhibition: human NPY-Y1 membranes
T10 construct: purchased Perkin Elmer Biosignal
T10 sequence (P25929 1-384): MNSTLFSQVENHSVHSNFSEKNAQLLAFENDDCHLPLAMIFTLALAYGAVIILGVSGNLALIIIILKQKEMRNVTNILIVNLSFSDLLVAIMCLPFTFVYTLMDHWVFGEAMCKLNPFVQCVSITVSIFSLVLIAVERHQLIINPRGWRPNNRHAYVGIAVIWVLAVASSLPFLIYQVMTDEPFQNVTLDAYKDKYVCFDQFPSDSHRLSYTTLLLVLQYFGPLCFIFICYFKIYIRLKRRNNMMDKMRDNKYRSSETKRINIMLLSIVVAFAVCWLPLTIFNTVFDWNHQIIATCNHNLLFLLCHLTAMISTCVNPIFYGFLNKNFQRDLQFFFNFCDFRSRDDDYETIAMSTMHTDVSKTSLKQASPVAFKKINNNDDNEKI
Method in brief: as §1

[2] = biological target: T11, Human melanin-concentrating hormone (MCH1) (Homo sapiens, UniProt Q99705); assay: Radioligand binding, human melanin-concentrating hormone MCH1 membranes, FlashPlate, [125I]-S36057; conditions: compound at 10 μM; for A6 radioligand binding inhibition: human MCH1 membranes
T11 construct: purchased Perkin Elmer Biosignal
T11 sequence (Q99705 whole entry): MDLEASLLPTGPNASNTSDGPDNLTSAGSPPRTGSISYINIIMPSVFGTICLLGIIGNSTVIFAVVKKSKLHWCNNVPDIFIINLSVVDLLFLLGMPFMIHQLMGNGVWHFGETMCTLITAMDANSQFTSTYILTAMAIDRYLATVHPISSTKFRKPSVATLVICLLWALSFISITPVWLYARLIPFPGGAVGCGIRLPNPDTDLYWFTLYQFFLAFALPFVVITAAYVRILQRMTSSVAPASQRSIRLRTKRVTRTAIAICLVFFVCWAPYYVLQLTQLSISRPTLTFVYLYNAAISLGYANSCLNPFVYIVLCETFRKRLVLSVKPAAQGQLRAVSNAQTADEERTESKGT
Method in brief: as §1

T1 sequence (P41968 whole entry): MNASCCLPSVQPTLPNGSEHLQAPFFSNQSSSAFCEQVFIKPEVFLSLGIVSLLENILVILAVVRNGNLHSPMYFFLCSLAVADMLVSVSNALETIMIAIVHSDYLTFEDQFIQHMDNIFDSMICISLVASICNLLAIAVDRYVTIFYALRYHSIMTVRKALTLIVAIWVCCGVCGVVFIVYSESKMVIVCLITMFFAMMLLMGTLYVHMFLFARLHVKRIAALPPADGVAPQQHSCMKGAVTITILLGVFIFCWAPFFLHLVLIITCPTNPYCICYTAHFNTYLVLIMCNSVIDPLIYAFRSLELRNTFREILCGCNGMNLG

Row | Compound | A3 radioligand binding, percentage inhibition (Human Melanocortin (MC3); [125I]-NDP-αMSH) | A2 radioligand binding, percentage inhibition (Human κ-Opioid (KOP); [3H]-Diprenorphine) | A11 radioligand binding, percentage inhibition (Mouse urotensin (mUR2); [125I]-Urotensin II) | A4 radioligand binding, percentage inhibition (Human Melanocortin (MC4); [125I]-NDP-αMSH) | A5 radioligand binding, percentage inhibition (Human melanocortin (MC5); [125I]-NDP-αMSH) | A8 radioligand binding, percentage inhibition (Human neurokinin (NK1); [125I]-Substance P) | A7 radioligand binding, percentage inhibition (Human μ-opioid (MOP); [3H]-Naloxone) | A1 radioligand binding, percentage inhibition (Human δ-opioid (DOP); [3H]-Bremazocine) | A10 radioligand binding, percentage inhibition (Human opioid (ORL1); [125I]-Nociceptin) | A9 radioligand binding, percentage inhibition ([1]; [125I]-PYY) | A6 radioligand binding, percentage inhibition ([2]; [125I]-S36057) | A3 radioligand binding inhibition (Human Melanocortin (MC3)) | A2 radioligand binding inhibition (Human κ-Opioid (KOP)) | A11 radioligand binding inhibition (Mouse urotensin (mUR2)) | A4 radioligand binding inhibition (Human Melanocortin (MC4)) | A5 radioligand binding inhibition (Human melanocortin (MC5)) | A8 radioligand binding inhibition (Human neurokinin (NK1)) | A7 radioligand binding inhibition (Human μ-opioid (MOP)) | A1 radioligand binding inhibition (Human δ-opioid (DOP)) | A10 radioligand binding inhibition (Human opioid (ORL1)) | also measured
1 | N=C(N)NCC(=O)N[C@H]1C(OCc2ccc(Cl)cc2)O[C@H](COCc2ccc3ccccc3c2)[C@@H](O)[C@@H]1OCc1ccc(-c2ccccc2)cc1 (stereo partly drawn) [compound 517] | – | – | – | – | – | – | – | – | – | – | – | – | – | – | – | – | – | – | – | – | A3: inhibition of radioligand binding, human melanocortin (MC3) (Human Melanocortin (MC3); [125I]-NDP-αMSH): + (“+” indicates greater than 50% inhibition at 10 μM); A2: inhibition of radioligand binding, human κ-opioid (KOP) (Human κ-Opioid (KOP); [3H]-Diprenorphine): + (“+” indicates greater than 50% inhibition at 10 μM); A11: inhibition of radioligand binding, mouse urotensin (mUR2) (Mouse urotensin (mUR2); [125I]-Urotensin II): − (“−” indicates less than 50% inhibition at 10 μM); A4: inhibition of radioligand binding, human melanocortin (MC4) (Human Melanocortin (MC4); [125I]-NDP-αMSH): + (“+” indicates greater than 50% inhibition at 10 μM); A5: inhibition of radioligand binding, human melanocortin (MC5) (Human melanocortin (MC5); [125I]-NDP-αMSH): + (“+” indicates greater than 50% inhibition at 10 μM); A8: inhibition of radioligand binding, human neurokinin (NK1) (Human neurokinin (NK1); [125I]-Substance P): + (“+” indicates greater than 50% inhibition at 10 μM); A7: inhibition of radioligand binding, human μ-opioid (MOP) (Human μ-opioid (MOP); [3H]-Naloxone): − (“−” indicates less than 50% inhibition at 10 μM); A1: inhibition of radioligand binding, human δ-opioid (DOP) (Human δ-opioid (DOP); [3H]-Bremazocine): − (“−” indicates less than 50% inhibition at 10 μM); A10: inhibition of radioligand binding, human opioid (ORL1) (Human opioid (ORL1); [125I]-Nociceptin): − (“−” indicates less than 50% inhibition at 10 μM); A9: inhibition of radioligand binding, human neuropeptide Y (NPY-Y1) ([1]; [125I]-PYY): − (“−” indicates less than 50% inhibition at 10 μM); A6: inhibition of radioligand binding, human melanin-concentrating hormone (MCH1) ([2]; [125I]-S36057): + (“+” indicates greater than 50% inhibition at 10 μM)
2 | CO[C@H]1[C@H](O)[C@@H](COCc2ccc3ccccc3c2)OC(OCCc2ccccc2)[C@@H]1NC(=O)CNC(=N)N (stereo partly drawn) [compound 113] | − (“−” indicates less than 50% inhibition at 10 μM) | − (“−” indicates less than 50% inhibition at 10 μM) | − (“−” indicates less than 50% inhibition at 10 μM) | + (“+” indicates greater than 50% inhibition at 10 μM) | + (“+” indicates greater than 50% inhibition at 10 μM) | + (“+” indicates greater than 50% inhibition at 10 μM) | − (“−” indicates less than 50% inhibition at 10 μM) | − (“−” indicates less than 50% inhibition at 10 μM) | + (“+” indicates greater than 50% inhibition at 10 μM) | − (“−” indicates less than 50% inhibition at 10 μM) | − (“−” indicates less than 50% inhibition at 10 μM) | – | – | – | – | – | – | – | – | – | –
3 | COC[C@H]1OC(OCCc2ccccc2)[C@H](NC(=O)CNC(=N)N)[C@@H](OCc2ccc(Cl)cc2)[C@@H]1O (stereo partly drawn) [compound 48] | – | – | – | – | – | – | – | – | – | – | – | − (“−” indicates less than 50% inhibition at 10 μM) | − (“−” indicates less than 50% inhibition at 10 μM) | − (“−” indicates less than 50% inhibition at 10 μM) | + (“+” indicates greater than 50% inhibition at 10 μM) | + (“+” indicates greater than 50% inhibition at 10 μM) | − (“−” indicates less than 50% inhibition at 10 μM) | − (“−” indicates less than 50% inhibition at 10 μM) | − (“−” indicates less than 50% inhibition at 10 μM) | − (“−” indicates less than 50% inhibition at 10 μM) | A9 radioligand binding inhibition [1]: − (“−” indicates less than 50% inhibition at 10 μM); A6 radioligand binding inhibition [2]: + (“+” indicates greater than 50% inhibition at 10 μM)
4 | CO[C@H]1[C@H](O)[C@@H](COCc2ccc(Cl)cc2)OC(OCc2ccc(-c3ccccc3)cc2)[C@@H]1NC(=O)CCCNC(=N)N (stereo partly drawn) [compound 65] | – | – | – | – | – | – | – | – | – | – | – | + (“+” indicates greater than 50% inhibition at 10 μM) | − (“−” indicates less than 50% inhibition at 10 μM) | − (“−” indicates less than 50% inhibition at 10 μM) | + (“+” indicates greater than 50% inhibition at 10 μM) | + (“+” indicates greater than 50% inhibition at 10 μM) | + (“+” indicates greater than 50% inhibition at 10 μM) | + (“+” indicates greater than 50% inhibition at 10 μM) | − (“−” indicates less than 50% inhibition at 10 μM) | − (“−” indicates less than 50% inhibition at 10 μM) | A9 radioligand binding inhibition [1]: − (“−” indicates less than 50% inhibition at 10 μM); A6 radioligand binding inhibition [2]: − (“−” indicates less than 50% inhibition at 10 μM)
5 | CO[C@H]1[C@H](O)[C@@H](COCc2ccc3ccccc3c2)OC(OCc2cccc(O)c2)[C@@H]1NC(=O)CNC(=N)N (stereo partly drawn) [compound 165] | − (“−” indicates less than 50% inhibition at 10 μM) | − (“−” indicates less than 50% inhibition at 10 μM) | − (“−” indicates less than 50% inhibition at 10 μM) | − (“−” indicates less than 50% inhibition at 10 μM) | − (“−” indicates less than 50% inhibition at 10 μM) | + (“+” indicates greater than 50% inhibition at 10 μM) | − (“−” indicates less than 50% inhibition at 10 μM) | − (“−” indicates less than 50% inhibition at 10 μM) | − (“−” indicates less than 50% inhibition at 10 μM) | − (“−” indicates less than 50% inhibition at 10 μM) | − (“−” indicates less than 50% inhibition at 10 μM) | – | – | – | – | – | – | – | – | – | –
6 | COCC1OC(OCc2ccccc2)C(NC(=O)CCN)C(OCc2ccccc2)C1O (stereo not drawn) [compound 172] | − (“−” indicates less than 50% inhibition at 10 μM) | − (“−” indicates less than 50% inhibition at 10 μM) | − (“−” indicates less than 50% inhibition at 10 μM) | − (“−” indicates less than 50% inhibition at 10 μM) | − (“−” indicates less than 50% inhibition at 10 μM) | + (“+” indicates greater than 50% inhibition at 10 μM) | − (“−” indicates less than 50% inhibition at 10 μM) | − (“−” indicates less than 50% inhibition at 10 μM) | − (“−” indicates less than 50% inhibition at 10 μM) | − (“−” indicates less than 50% inhibition at 10 μM) | − (“−” indicates less than 50% inhibition at 10 μM) | – | – | – | – | – | – | – | – | – | –
